According to ChEMBL document CHEMBL4364244, “New insights into the biological activities of Chrysanthemum morifolium: Natural flavonoids alleviate diabetes by targeting α-glucosidase and the PTP-1B signaling pathway” (Eur J Med Chem, 2019):
The source made the active and inactive calls. The rule behind the calls is not given here.

What was measured:
[1] = biological target: T1, Tyrosine-protein phosphatase non-receptor type 1 (Homo sapiens) (UniProt P18031); assay: Inhibition of human recombinant full length PTP1B expressed in Escherichia coli cells at 5 uM using pNPP as substrate preincubated with enzyme for 5 mins followed by incubation with substrate for 10 mins by spectrophotometry analysis relative to control
T1 sequence (whole entry): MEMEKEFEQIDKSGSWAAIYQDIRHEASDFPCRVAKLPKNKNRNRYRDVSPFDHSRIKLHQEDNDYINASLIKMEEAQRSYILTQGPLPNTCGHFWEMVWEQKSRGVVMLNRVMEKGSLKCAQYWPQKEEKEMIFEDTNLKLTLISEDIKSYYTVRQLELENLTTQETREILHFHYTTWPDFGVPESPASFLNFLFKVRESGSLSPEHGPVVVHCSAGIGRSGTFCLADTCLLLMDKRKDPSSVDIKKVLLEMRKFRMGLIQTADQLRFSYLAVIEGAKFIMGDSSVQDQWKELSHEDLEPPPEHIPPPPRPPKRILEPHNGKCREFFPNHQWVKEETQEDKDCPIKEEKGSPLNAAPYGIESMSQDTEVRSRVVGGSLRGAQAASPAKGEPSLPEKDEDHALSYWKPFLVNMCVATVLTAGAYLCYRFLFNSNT

[2] = biological target: T1, Tyrosine-protein phosphatase non-receptor type 1 (Homo sapiens); assay: Inhibition of human recombinant full length PTP1B expressed in Escherichia coli cells at 10 uM using pNPP as substrate preincubated with enzyme for 5 mins followed by incubation with substrate for 10 mins by spectrophotometry analysis relative to control
[3] = Inhibition of baker's yeast alpha-glucosidase using p-nitrophenyl alpha-D-glucopyranoside as substrate measured after 30 mins by spectrophotometry analysis; set-up: species or system Saccharomyces cerevisiae
[4] = biological target: T1, Tyrosine-protein phosphatase non-receptor type 1 (Homo sapiens); assay: Inhibition of human recombinant full length PTP1B expressed in Escherichia coli cells at 1 uM using pNPP as substrate preincubated with enzyme for 5 mins followed by incubation with substrate for 10 mins by spectrophotometry analysis relative to control
Cricetulus griseus [5] = organism: Cricetulus griseus; assay: Inhibition of PTP1B in CHOK1 cells assessed as increase in phosphorylation of GSK-3beta at Ser9 residue at 20 uM measured after 48 hrs by Western blot analysis; type: cell-based
CHO-K1 = assay: Decrease in PTP1B protein expression in CHOK1 cells at 20 uM measured after 48 hrs by Western blot analysis; type: functional, cell-based; settings: Cricetulus griseus
HepG2 [6] = assay: Increase in glucose consumption in human HepG2 cells assessed as glucose concentration in the medium treated at 0.4 to 10 uM after incubating cells in the medium containing glucose measured after 24 hrs by glucose oxidase method; type: functional, cell-based
Cricetulus griseus [7] = organism: Cricetulus griseus; assay: Inhibition of PTP1B in CHOK1 cells assessed as increase in phosphorylation of AKT at Ser473 residue at 20 uM measured after 48 hrs by Western blot analysis; type: cell-based
HepG2 [8] = assay: Increase in glucose consumption in human HepG2 cells assessed as glucose concentration in the medium treated at 500 uM after incubating cells in the medium containing glucose measured after 24 hrs by glucose oxidase method; type: functional, cell-based
INS1 [9] = assay: Increase in insulin secretion in high glucose-treated rat INS-1 cells preincubated with compound and 40 mM glucose for 48 hrs followed by stimulation with KRB buffer containing 5 to 30 mM glucose for 60 mins and measured by ELISA; type: functional, cell-based
Mus musculus [10] = assay: Antihyperlipidemic activity in STZ-induced type-2 diabetes Kunming mouse model assessed as serum total cholesterol level at 50 mg/kg, po for 4 weeks (reference value: 9.75 +/-0.11 mM); type: functional
Mus musculus [11] = assay: Antihyperlipidemic activity in STZ-induced type-2 diabetes Kunming mouse model assessed as serum triglyceride level at 50 mg/kg, po for 4 weeks (reference value: 3.08 +/- 0.84 mM); type: functional
Mus musculus [12] = assay: Antidiabetic activity in STZ-induced type-2 diabetes Kunming mouse model assessed as decrease in blood glucose AUC at 50 to 100 mg/kg, po administered for 4 weeks by glucometric analysis; type: functional, organism-based
Mus musculus [13] = assay: Antihyperlipidemic activity in STZ-induced type-2 diabetes Kunming mouse model assessed as decrease in serum total cholesterol level at 100 mg/kg, po for 4 weeks relative to diabetic control; type: functional; settings: 672 h
Mus musculus [14] = assay: Antihyperlipidemic activity in STZ-induced type-2 diabetes Kunming mouse model assessed as serum triglyceride level at 100 mg/kg, po for 4 weeks (reference value: 3.08 +/- 0.84 mM); type: functional
Mus musculus [15] = assay: Antidiabetic activity in STZ-induced type-2 diabetes Kunming mouse model assessed as decrease in fasting blood glucose level at 50 to 100 mg/kg, po administered for 4 weeks by glucometric analysis; type: functional, organism-based
Mus musculus [16] = assay: Antihyperlipidemic activity in STZ-induced type-2 diabetes Kunming mouse model assessed as serum total cholesterol level at 100 mg/kg, po for 4 weeks (reference value: 9.75 +/-0.11 mM); type: functional
Mus musculus [17] = assay: Antidiabetic activity in STZ-induced type-2 diabetes Kunming mouse model assessed as decrease in postprandial glucose level at 50 mg/kg, po for 2 hrs by glucometer analysis; type: functional, organism-based
Mus musculus [18] = assay: Antidiabetic activity in STZ-induced type-2 diabetes Kunming mouse model assessed as increase in glucose tolerance at 50 to 100 mg/kg, po for 13 days followed by overnight fasting and later orally treated with glucose for 60 mins and measured after 120 mins by OGTT; type: functional, organism-based
Mus musculus [19] = assay: Antihyperlipidemic activity in STZ-induced type-2 diabetes Kunming mouse model assessed as decrease in serum total cholesterol level at 50 mg/kg, po for 4 weeks relative to diabetic control; type: functional; settings: 672 h
INS1 [20] = assay: Increase in insulin secretion in high glucose-treated rat INS-1 cells at 0.15 uM preincubated with compound and 40 mM glucose for 48 hrs followed by stimulation with KRB buffer containing 5 to 30 mM glucose for 60 mins and measured by ELISA; type: functional, cell-based
Mus musculus [21] = assay: Antihyperlipidemic activity in STZ-induced type-2 diabetes Kunming mouse model assessed as decrease in serum triglyceride level at 50 mg/kg, po for 4 weeks relative to diabetic control; type: functional; settings: 672 h
Mus musculus [22] = assay: Antihyperlipidemic activity in STZ-induced type-2 diabetes Kunming mouse model assessed as decrease in serum triglyceride level at 100 mg/kg, po for 4 weeks relative to diabetic control; type: functional; settings: 672 h
Mus musculus [23] = assay: Antidiabetic activity in STZ-induced type-2 diabetes Kunming mouse model assessed as decrease in blood glucose AUC at 50 mg/kg, po for 14 days followed by overnight fasting and later orally treated with maltose for 60 mins and measured after 120 mins by OMTT; type: functional
Mus musculus [24] = assay: Antidiabetic activity in STZ-induced type-2 diabetes Kunming mouse model assessed as decrease in blood glucose AUC at 100 mg/kg, po for 14 days followed by overnight fasting and later orally treated with maltose for 60 mins and measured after 120 mins by OMTT; type: functional

| Compound | inhibition [1] | inhibition [2] | IC50 [3] | inhibition [4] | Activity (Cricetulus griseus [5]) | inhibition (CHO-K1) | Activity (HepG2 [6]) | Activity (Cricetulus griseus [7]) | Activity (Mus musculus [10]) | Activity (Mus musculus [11]) | further results |
| --- | --- | --- | --- | --- | --- | --- | --- | --- | --- | --- | --- |
| O=c1cc(-c2ccc(O)c(O)c2)oc2cc(O)cc(O)c12 [LUTEOLIN] | 40.8% | 39.9% | 16.6 µM | 19.8% | Active | Active | Active | Active |  |  |  |
| CN(C)C(=N)NC(=N)N |  |  |  |  |  |  |  |  |  |  | Activity (HepG2 [8]): Active |
| COc1ccc(-c2cc(=O)c3c(O)cc(O)cc3o2)cc1 [ACACETIN] | 36.3% | 32% | > 100 µM | 38.2% | Active | Active | Active | Active |  |  |  |
| COc1ccc(-c2cc(=O)c3c(O)cc(O[C@@H]4O[C@H](CO)[C@@H](O)[C@H](O)[C@H]4O)cc3o2)cc1O | 23.4% | 29.8% | > 100 µM | 27.7% | Active | Active | Active | Active |  |  | Activity (INS1 [9]): Dose-dependent effect |
| C[C@H]1O[C@H](O[C@H]2[C@H](O)[C@@H](O)[C@@H](O[C@H]3[C@H](O)[C@@H](O)C(O)O[C@@H]3CO)O[C@@H]2CO)[C@H](O)[C@@H](O)[C@@H]1N[C@H]1C=C(CO)[C@@H](O)[C@H](O)[C@H]1O (some centres not stated) [ACARBOSE] |  |  | 236 µM |  |  |  |  |  | 9.61 mM | 3.02 mM |  |
| O=c1cc(-c2ccc(O)cc2)oc2cc(O)cc(O)c12 [APIGENIN] | 20.2% | 39.2% | 9.04 µM | 29.8% | Active | Active | Active | Active | 7.6 mM | 3.13 mM | inhibition (Mus musculus [12]): Active; inhibition in vivo at 100 mg/kg (Mus musculus [13]): 15.7%; Activity (Mus musculus [14]): 3.06 mM; inhibition (Mus musculus [15]): Active; Activity (Mus musculus [16]): 8.22 mM; inhibition (Mus musculus [17]): Active; Activity (Mus musculus [18]): Active; inhibition in vivo at 50 mg/kg (Mus musculus [19]): 22.1% |
| COc1ccc(Cl)cc1C(=O)NCCc1ccc(S(=O)(=O)NC(=O)NC2CCCCC2)cc1 |  |  |  |  |  |  |  |  |  |  | Activity (INS1 [20]): Active |
| COc1ccc(-c2cc(=O)c3c(O)cc(O[C@@H]4O[C@H](CO[C@@H]5O[C@@H](C)[C@H](O)[C@@H](O)[C@H]5O)[C@@H](O)[C@H](O)[C@H]4O)cc3o2)cc1O [DIOSMIN] | 32.8% | 30.5% | > 100 µM | 36.3% | Active | Active | Active | Active | 9.18 mM | 2.04 mM | inhibition (Mus musculus [12]): Active; Activity (INS1 [9]): Dose-dependent effect; inhibition in vivo at 50 mg/kg (Mus musculus [21]): 33.8%; inhibition in vivo at 100 mg/kg (Mus musculus [13]): 8.3%; inhibition in vivo at 100 mg/kg (Mus musculus [22]): 27.3%; Activity (Mus musculus [14]): 2.24 mM; inhibition in vivo at 50 mg/kg (Mus musculus [23]): 11.2%; inhibition (Mus musculus [15]): Active; Activity (Mus musculus [16]): 8.94 mM; inhibition (Mus musculus [17]): Active; Activity (Mus musculus [18]): Active; inhibition in vivo at 100 mg/kg (Mus musculus [24]): 13.5% |
| COc1ccc(-c2cc(=O)c3c(O)cc(O)cc3o2)cc1O | 27.1% | 28.3% |  | 22.8% | Active | Active | Active | Active |  |  |  |
